Experimental data from ChEMBL document CHEMBL3792383, “C-cinnamoyl glycosides as a new class of anti-filarial agents” (Eur J Med Chem, 2016).
Converted amounts (≈) assume the structure as drawn. The source made the active and inactive calls. No cut-off for these calls is given here.

Assays:
Setaria cervi [1] = experiment: Antifilarial activity against microfilaria of Setaria cervi assessed as inhibition of relative movability after 24 hrs by microscopy; type: functional, organism-based
Setaria cervi [2] = experiment: Antifilarial activity against microfilaria of Setaria cervi assessed as inhibition of worm viability after 24 hrs by MTT assay; type: functional
Setaria cervi [3] = experiment: Induction of apoptosis in microfilaria of Setaria cervi assessed as DNA fragmentation after 24 hrs by propidium iodide staining-based inverted fluorescence microscopy; type: functional, organism-based
Setaria cervi [4] = experiment: Induction of apoptosis in microfilaria of Setaria cervi assessed as DNA fragmentation after 24 hrs by Hoechst 33342 staining-based fluorescence microscopy; type: functional, organism-based
Setaria cervi [5] = experiment: Potency index, ratio of ivermectin LC50 to compound LC50 for microfilaria of Setaria cervi by MTT assay; type: functional
[6] = Cytotoxicity against human normal kidney epithelial cells after 24 hrs by MTT assay; type: cell-based, Epithelial cell
[7] = Selectivity index, ratio of CC50 for human normal kidney epithelial cells to IC50 for microfilaria of Setaria cervi; type: functional, Epithelial cell
Wuchereria bancrofti = experiment: Antifilarial activity against microfilaria of Wuchereria bancrofti assessed as reduction in worm viability at 18 nM after 24 hrs by MTT assay; type: functional
Setaria cervi [8] = experiment: Induction of apoptosis in microfilaria of Setaria cervi assessed as chromatin condensation after 24 hrs by Hoechst 33342 staining-based fluorescence microscopy; type: functional, organism-based
Setaria cervi [9] = experiment: Induction of apoptosis in microfilaria of Setaria cervi assessed as chromatin condensation after 24 hrs by propidium iodide staining-based inverted fluorescence microscopy; type: functional, organism-based
Setaria cervi [10] = experiment: Induction of cuticular sheath damage in microfilaria of Setaria cervi after 24 hrs by scanning electron microscopy; type: functional, organism-based
[11] = Antifilarial activity against microfilaria of Wuchereria bancrofti assessed as inhibition of relative movability after 24 hrs by microscopy; type: functional

Compound | IC50 (Setaria cervi [1]; Setaria cervi, 24 h) [nM] | MIC (Setaria cervi [1]; Setaria cervi, 24 h) [µM] | LC50 (Setaria cervi [2]) [nM] | other results
CC(=O)OC[C@H]1O[C@@H](CC(=O)/C=C/c2cccs2)[C@H](OC(C)=O)[C@@H](OC(C)=O)[C@@H]1OC(C)=O | 46.9 | 0.0245 (≈ 11.8 ng/mL) | 257 | 
CC(=O)OC[C@H]1O[C@@H](CC(=O)/C=C/c2cccc3ccccc23)[C@H](OC(C)=O)[C@@H](OC(C)=O)[C@@H]1OC(C)=O | 13.5 | 0.0117 (≈ 6.15 ng/mL) | 19.4 | 
CC(=O)OC[C@H]1O[C@@H](CC(=O)/C=C/c2ccc(OCc3ccccc3)cc2)[C@H](OC(C)=O)[C@@H](OC(C)=O)[C@@H]1OC(C)=O | 348 | 0.263 (≈ 153 ng/mL) | > 900 | 
COc1cc(/C=C/C(=O)C[C@@H]2O[C@H](COC(C)=O)[C@@H](OC(C)=O)[C@H](OC(C)=O)[C@H]2OC(C)=O)cc(OC)c1OC | 76.4 | 0.0602 (≈ 34.1 ng/mL) | 140 | 
COc1cccc(/C=C/C(=O)C[C@@H]2O[C@H](COC(C)=O)[C@@H](OC(C)=O)[C@H](OC(C)=O)[C@H]2OC(C)=O)c1 | > 900 | > 0.9 | > 900 | 
CC(=O)OC[C@H]1O[C@@H](CC(=O)/C=C/c2cc(Cl)cc(Cl)c2)[C@H](OC(C)=O)[C@@H](OC(C)=O)[C@@H]1OC(C)=O | 7.52 | 0.00532 (≈ 2.9 ng/mL) | 15.8 | Activity (Setaria cervi [3]): Active; Activity (Setaria cervi [4]): Active; RatioLC50 (Setaria cervi [5]): 5.4; CC50 at 24 h [6]: 32.9 nM; Ratio CC50/IC50 [7]: 4.94; Activity (Wuchereria bancrofti): 73.1%; Activity (Setaria cervi [8]): Active; Activity (Setaria cervi [9]): Active; Activity (Setaria cervi [10]): inactive; IC50 [11]: 9.33 nM; MIC [11]: 0.00476 µM (≈ 2.6 ng/mL); inhibition [11]: Dose-dependent effect
CC(=O)OC[C@H]1O[C@@H](CC(=O)/C=C/c2ccccc2)[C@H](OC(C)=O)[C@@H](OC(C)=O)[C@@H]1OC(C)=O | 38.8 | 0.0206 (≈ 9.8 ng/mL) | 108 | 
CC(=O)OC[C@H]1O[C@@H](CC(=O)/C=C/c2ccco2)[C@H](OC(C)=O)[C@@H](OC(C)=O)[C@@H]1OC(C)=O | 46.6 | 0.0153 (≈ 7.12 ng/mL) | 163 | 
CC(=O)OC[C@H]1O[C@@H](CC(=O)/C=C/c2cccc([N+](=O)[O-])c2)[C@H](OC(C)=O)[C@@H](OC(C)=O)[C@@H]1OC(C)=O | 11.3 | 0.00594 (≈ 3.1 ng/mL) | 29 | CC50 at 24 h [6]: 15.4 nM; Ratio CC50/IC50 [7]: 1.44
CC(=O)OC[C@H]1O[C@@H](CC(=O)/C=C/c2ccc([N+](=O)[O-])s2)[C@H](OC(C)=O)[C@@H](OC(C)=O)[C@@H]1OC(C)=O | 21.3 | 0.0106 (≈ 5.6 ng/mL) | 47.5 | 
CC(=O)OC[C@H]1O[C@@H](CC(=O)/C=C/c2ccc([N+](=O)[O-])cc2)[C@H](OC(C)=O)[C@@H](OC(C)=O)[C@@H]1OC(C)=O | 23.9 | 0.0111 (≈ 5.8 ng/mL) | 71.2 | 
IVERMECTIN [listing 1 of 2 here] |  |  | 53.6 | MIC (Setaria cervi [1]): 0.00743 µM; Activity (Wuchereria bancrofti): 17.6%
COc1ccccc1/C=C/C(=O)C[C@@H]1O[C@H](COC(C)=O)[C@@H](OC(C)=O)[C@H](OC(C)=O)[C@H]1OC(C)=O | 68.9 | 0.0351 (≈ 17.8 ng/mL) | 256 | 
CC(=O)OC[C@H]1O[C@@H](CC(=O)/C=C/c2ccc(O)cc2)[C@H](OC(C)=O)[C@@H](OC(C)=O)[C@@H]1OC(C)=O | > 900 | > 0.9 | > 900 | 
COc1ccc(/C=C/C(=O)C[C@@H]2O[C@H](COC(C)=O)[C@@H](OC(C)=O)[C@H](OC(C)=O)[C@H]2OC(C)=O)cc1OCc1ccccc1 | 250 | 0.123 (≈ 75.2 ng/mL) | > 900 | 
IVERMECTIN [listing 2 of 2 here] |  |  |  | IC50 (Setaria cervi [1]): 19.5 nM
CC(=O)OC[C@H]1O[C@@H](CC(=O)/C=C/c2cc(Cl)cc(Cl)c2O)[C@H](OC(C)=O)[C@@H](OC(C)=O)[C@@H]1OC(C)=O | 17.7 | 0.00919 (≈ 5.16 ng/mL) | 44.4 | 
CC(=O)OC[C@H]1O[C@@H](CC(=O)/C=C/c2cccnc2)[C@H](OC(C)=O)[C@@H](OC(C)=O)[C@@H]1OC(C)=O | 7.64 | 0.00377 (≈ 1.8 ng/mL) | 26.7 | CC50 at 24 h [6]: 4.17 nM; Ratio CC50/IC50 [7]: 0.56
CC(=O)OC[C@H]1O[C@@H](CC(=O)/C=C/c2ccc(Cl)cc2)[C@H](OC(C)=O)[C@@H](OC(C)=O)[C@@H]1OC(C)=O | 26.6 | 0.0167 (≈ 8.54 ng/mL) | 51.9 | 
CC(=O)OC[C@H]1O[C@@H](CC(=O)/C=C/c2ccc(C(F)(F)F)cc2)[C@H](OC(C)=O)[C@@H](OC(C)=O)[C@@H]1OC(C)=O | 6.89 | 0.0034 (≈ 1.85 ng/mL) | 24.6 | Activity (Setaria cervi [3]): Active; Activity (Setaria cervi [4]): Active; RatioLC50 (Setaria cervi [5]): 3.5; CC50 at 24 h [6]: 102 nM; Ratio CC50/IC50 [7]: 14.87; Activity (Wuchereria bancrofti): 40.6%; Activity (Setaria cervi [8]): Active; Activity (Setaria cervi [9]): Active; Activity (Setaria cervi [10]): Active; IC50 [11]: 8.96 nM; MIC [11]: 0.0044 µM (≈ 2.4 ng/mL); inhibition [11]: Dose-dependent effect
COc1cc(/C=C/C(=O)C[C@@H]2O[C@H](COC(C)=O)[C@@H](OC(C)=O)[C@H](OC(C)=O)[C@H]2OC(C)=O)ccc1O | 185 | 0.0722 (≈ 37.7 ng/mL) | 500 | 
CC(=O)OC[C@H]1O[C@@H](CC(=O)/C=C/c2ccc(C)cc2)[C@H](OC(C)=O)[C@@H](OC(C)=O)[C@@H]1OC(C)=O | 13.6 | 0.00581 (≈ 2.85 ng/mL) | 42.2 | CC50 at 24 h [6]: 3.18 nM; Ratio CC50/IC50 [7]: 0.24
CC(=O)OC[C@H]1O[C@@H](CC(=O)/C=C/c2ccc(Cl)c(Cl)c2)[C@H](OC(C)=O)[C@@H](OC(C)=O)[C@@H]1OC(C)=O | 6.97 | 0.00458 (≈ 2.5 ng/mL) | 13.2 | Activity (Setaria cervi [3]): Active; Activity (Setaria cervi [4]): Active; RatioLC50 (Setaria cervi [5]): 6.5; CC50 at 24 h [6]: 25.8 nM; Ratio CC50/IC50 [7]: 3.97; Activity (Wuchereria bancrofti): 81.09%; Activity (Setaria cervi [8]): Active; Activity (Setaria cervi [9]): Active; Activity (Setaria cervi [10]): Active; IC50 [11]: 6.77 nM; MIC [11]: 0.00458 µM (≈ 2.5 ng/mL); inhibition [11]: Dose-dependent effect
CCOc1ccc(/C=C/C(=O)C[C@@H]2O[C@H](COC(C)=O)[C@@H](OC(C)=O)[C@H](OC(C)=O)[C@H]2OC(C)=O)cc1 | 51.4 | 0.0279 (≈ 14.5 ng/mL) | 76.8 | 
COc1ccc(/C=C/C(=O)C[C@@H]2O[C@H](COC(C)=O)[C@@H](OC(C)=O)[C@H](OC(C)=O)[C@H]2OC(C)=O)cc1 | 41.6 | 0.0207 (≈ 10.5 ng/mL) | 142 | 
CC(=O)OC[C@H]1O[C@@H](CC(=O)/C=C/c2ccc3ccccc3c2)[C@H](OC(C)=O)[C@@H](OC(C)=O)[C@@H]1OC(C)=O | > 900 | > 0.9 | > 900 | 
CC(=O)OC[C@H]1O[C@@H](CC(=O)/C=C/c2ccc(N(C)C)cc2)[C@H](OC(C)=O)[C@@H](OC(C)=O)[C@@H]1OC(C)=O | 226 | 0.113 (≈ 58.9 ng/mL) | 886 | 
COc1ccc(/C=C/C(=O)C[C@@H]2O[C@H](COC(C)=O)[C@@H](OC(C)=O)[C@H](OC(C)=O)[C@H]2OC(C)=O)cc1OC | 81.4 | 0.0629 (≈ 33.7 ng/mL) | 274 | 
CC(=O)OC[C@H]1O[C@@H](CC(=O)/C=C/c2ccc(OC(C)=O)cc2)[C@H](OC(C)=O)[C@@H](OC(C)=O)[C@@H]1OC(C)=O | 119 | 0.0342 (≈ 18.3 ng/mL) | 336 | 
